In brackets after ≈: the same amount, converted by molar mass.
Tests used:
[1] = Solubility of various drugs: effect of CMC in aqueous HPβCD solutions (Example 1); conditions: for S4 /S3: 0.25% CMC + 10% HPβCD vs 10% HPβCD
physchem [2] = assay: physchem
[3] = Effect of PVP on the solubilization of drugs in aqueous HPβCD solutions (Example 7); conditions: for S4 /S3: with vs without 0.25% PVP
physchem [4] = assay: physchem; remark: listed apart in the source
physchem [5] = assay: physchem; remark: listed apart in the source
Description: An excess amount of the compound to be tested was added to each solvent and the suspensions which formed were heated in sealed containers to 120° C. The solubility of salicylic acid was determined in acidic (HCl) solution.

physchem [6] = assay: physchem; remark: listed apart in the source
physchem [7] = conditions: 10% heβcd
[8] = HPβCD with CMC / HPβCD without polymer (S6)
[9] = HPβCD with HPMC / HPβCD without polymer (S8)
[10] = HPβCD with PVP / HPβCD without polymer (S7)

| SMILES | S4 /S3 [1] | solubility (physchem [2]; 0.25% cmc + 10% hpbetacd) [µg/mL] | solubility (physchem [2]; aqueous 0.25% cmc) [µg/mL] | solubility (physchem [2]; aqueous 10% hpbetacd) [µg/mL] | solubility (physchem [2]; water) [µg/mL] | solubility at 72 h (physchem [4]; 0.25% pvp, 10% hpβcd) [µg/mL] | solubility at 72 h (physchem [4]; 10% hpβcd ms 0.7) [µg/mL] | solubility at 72 h (physchem [4]; aqueous 0.25% pvp) [µg/mL] | solubility at 72 h (physchem [4]; water) [µg/mL] | solubility ratio (physchem [5]; [8]) | solubility ratio (physchem [5]; [9]) | also measured |
| --- | --- | --- | --- | --- | --- | --- | --- | --- | --- | --- | --- | --- |
| CCOc1ccc2nc(S(N)(=O)=O)sc2c1 [Ethoxyzolamide] | 1.39 | 1660 | 70 (≈ 0.271 mM) | 1190 (≈ 4.61 mM) | 40 (≈ 0.155 mM) | 2720 (≈ 10.5 mM) | 1360 (≈ 5.26 mM) | 60 (≈ 0.232 mM) | 40 (≈ 0.155 mM) |  |  | S4 /S3 [3]: 2.00 |
| CN(C)c1ccc(N=Nc2ccccc2)cc1 [Methylyellow] |  |  |  |  |  |  |  |  |  | 1.04 | 1.09 | solubility (physchem [5]; 0.25% hpmc + 10% hpβcd): 250 µg/mL; solubility (physchem [5]; 0.25% pvp + 10% hpβcd): 240 µg/mL; solubility ratio (physchem [5]; [10]): 1.04; solubility (physchem [5]; aqueous 0.25% cmc): 0.85 µg/mL (≈ 0.00377 mM); solubility (physchem [5]; aqueous 0.25% cmc, 10% hpβcd): 240 µg/mL (≈ 1.07 mM); solubility (physchem [5]; aqueous 0.25% hpmc): 0.75 µg/mL (≈ 0.00333 mM); solubility (physchem [5]; aqueous 0.25% pvp): 0.85 µg/mL (≈ 0.00377 mM); solubility (physchem [5]; aqueous 10% hpβcd): 230 µg/mL (≈ 1.02 mM); solubility (physchem [5]; water): 0.64 µg/mL (≈ 0.00284 mM) |
| Clc1ccc(COC(Cn2ccnc2)c2ccc(Cl)cc2Cl)c(Cl)c1 (stereo not shown) [Miconazole, miconazole] |  | 2500 | 60 (≈ 0.144 mM) | 1980 (≈ 4.76 mM) | 40 (≈ 0.0961 mM) | 3400 (≈ 8.17 mM) | 2360 (≈ 5.67 mM) | 200 (≈ 0.481 mM) | 40 (≈ 0.0961 mM) |  |  | solubility (physchem [6]; 0.25% cmc in water): 60 µg/mL (≈ 0.144 mM); solubility (physchem [6]; 0.25% cmc, 10% hpbcd): 2500 µg/mL (≈ 6.01 mM); solubility (physchem [6]; 10% ethanol in water, organic solvent or mixture): 310 µg/mL (≈ 0.745 mM); solubility (physchem [6]; 10% ethanol, 10% hpbcd, organic solvent or mixture): 2220 µg/mL (≈ 5.33 mM); solubility (physchem [6]; 10% hpbcd in water): 1980 µg/mL (≈ 4.76 mM); solubility (physchem [6]; ethanol, cmc, hpbcd, organic solvent or mixture): 12600 µg/mL (≈ 30.2 mM); solubility (physchem [6]; water): 40 µg/mL (≈ 0.0961 mM); solubility at 72 h (physchem [7]; 0.25% cmc): 3310 µg/mL (≈ 7.95 mM); solubility at 72 h (physchem [7]): 2510 µg/mL (≈ 6.03 mM) |
| C[C@]12C=CC(=O)C=C1CC[C@@H]1[C@@H]2[C@@H](O)C[C@@]2(C)[C@H]1CC[C@]2(O)C(=O)CO [Prednisolone, prednisolone] | 1.13 | 15300 | 530 (≈ 1.47 mM) | 13600 (≈ 37.7 mM) | 380 (≈ 1.05 mM) |  |  |  |  |  |  |  |
| CC(=O)[C@H]1CC[C@H]2[C@@H]3CCC4=CC(=O)CC[C@]4(C)[C@H]3CC[C@]12C [Progesterone, progesterone] | 1.52 |  |  |  |  |  |  |  |  |  |  | solubility ([1]; 0.25% cmc + 10% hpbetacd): 6110 µg/mL; solubility ([1]; aqueous 10% hpbetacd): 4030 µg/mL (≈ 12.8 mM); solubility at 72 h ([3]; 0.25% pvp, 10% hpβcd): 5710 µg/mL (≈ 18.2 mM); solubility at 72 h ([3]; 10% hpβcd ms 0.7): 4760 µg/mL (≈ 15.1 mM); S4 /S3 [3]: 1.20 |
| O=C(O)c1ccccc1O [Salicylic acid] |  |  |  |  |  |  |  |  |  | 1.14 | 1.06 | solubility (physchem [5]; 10% hpβcd acidic hcl solution): 3710 µg/mL (≈ 26.9 mM); solubility ratio (physchem [5]; [10]): 1.10; solubility (physchem [5]; acidic hcl, cmc, hpβcd): 4230 µg/mL (≈ 30.6 mM); solubility (physchem [5]; hpmc/hpβcd acidic hcl solution): 3920 µg/mL (≈ 28.4 mM); solubility (physchem [5]; pvp/hpβcd acidic hcl solution): 4070 µg/mL (≈ 29.5 mM) |
| CC1(C)O[C@@H]2C[C@H]3[C@@H]4CCC5=CC(=O)C=C[C@]5(C)[C@@]4(F)[C@@H](O)C[C@]3(C)[C@]2(C(=O)CO)O1 [Triamcinolone acetonide, triamcinolone acetonide] |  | 2580 | 70 (≈ 0.161 mM) | 2090 (≈ 4.81 mM) | 30 (≈ 0.069 mM) |  |  |  |  |  |  |  |
| COc1cc(Cc2cnc(N)nc2N)cc(OC)c1OC [Trimethoprim] |  |  |  |  |  | 6470 (≈ 22.3 mM) | 2830 (≈ 9.75 mM) | 1350 (≈ 4.65 mM) | 820 (≈ 2.82 mM) |  |  |  |
| COc1cc(C=O)ccc1O [Vanillin] |  |  |  |  |  |  |  |  |  | 1.09 | 1.06 | solubility (physchem [5]; 0.25% hpmc + 10% hpβcd): 26500 µg/mL; solubility (physchem [5]; aqueous 0.25% cmc): 13700 µg/mL (≈ 90 mM); solubility (physchem [5]; aqueous 0.25% cmc, 10% hpβcd): 27300 µg/mL (≈ 179 mM); solubility (physchem [5]; aqueous 0.25% hpmc): 17100 µg/mL (≈ 112 mM); solubility (physchem [5]; aqueous 0.25% pvp): 11500 µg/mL (≈ 75.6 mM); solubility (physchem [5]; aqueous 10% hpβcd): 25000 µg/mL (≈ 164 mM); solubility (physchem [5]; water): 13900 µg/mL (≈ 91.4 mM) |

From US5472954A, “Cyclodextrin complexation” (priority 1993, dated 1995)
